In the supplement of paper PMC10307832:

Columns and labels:
Assay in all cases: relative viability (nuclei count vs DMSO), 5 days (fraction); higher = more cells survive
[1] = compound: COc1cc2nc(N3CCCN(C)CC3)nc(NC3CCN(Cc4ccccc4)CC3)c2cc1OC + CCNC(=O)c1noc(-c2cc(C(C)C)c(O)cc2O)c1-c1ccc(CN2CCOCC2)cc1 [Luminespib] (partner 0.01 µM)
Outline: (§1)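 Each reported value is a median over duplicate plates. It expresses relative viability: treated-well nuclei count divided by vehicle-well nuclei count. Lung cancer cell lines in 1536-well plates were dosed by pin tool a day after seeding, alone with one drug or with a fixed anchor-drug dose plus five library-drug doses (not always all listed) in √10 steps, and nuclei were counted after 5 days.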

AZD6482 + OSI-027 = compound: Cc1cc([C@@H](C)Nc2ccccc2C(=O)O)c2nc(N3CCOCC3)cc(=O)n2c1 [AZD6482] + COc1cccc2cc(-c3nc([C@H]4CC[C@H](C(=O)O)CC4)n4ncnc(N)c34)[nH]c12 [OSI-027] (partner 0.5 µM)
Outline: as §1

[2] = compound: COc1cc2nc(N3CCCN(C)CC3)nc(NC3CCN(Cc4ccccc4)CC3)c2cc1OC + CS(=O)(=O)N1CCN(Cc2cc3nc(-c4cccc5[nH]ncc45)nc(N4CCOCC4)c3s2)CC1 [Pictilisib] (partner 1 µM)
Outline: as §1

AZD6482 + AZD7762 = compound: Cc1cc([C@@H](C)Nc2ccccc2C(=O)O)c2nc(N3CCOCC3)cc(=O)n2c1 [AZD6482] + NC(=O)Nc1cc(-c2cccc(F)c2)sc1C(=O)N[C@H]1CCCNC1 [AZD7762] (partner 0.2 µM)
Outline: as §1

Cell Line	relative viability ([1]; first compound 0.2 µM)	relative viability ([1]; first compound 0.6325 µM)	relative viability ([1]; first compound 2 µM)	relative viability ([1]; first compound 6.325 µM)	relative viability (AZD6482 + OSI-027; first compound 0.08 µM)	relative viability (AZD6482 + OSI-027; first compound 0.253 µM)	relative viability (AZD6482 + OSI-027; first compound 0.8 µM)	relative viability (AZD6482 + OSI-027; first compound 2.53 µM)	relative viability (AZD6482 + OSI-027; first compound 8 µM)	relative viability ([2]; first compound 0.2 µM)	relative viability ([2]; first compound 0.6325 µM)	relative viability ([2]; first compound 2 µM)	relative viability ([2]; first compound 6.325 µM)	relative viability (AZD6482 + AZD7762; first compound 0.08 µM)	relative viability (AZD6482 + AZD7762; first compound 0.253 µM)	relative viability (AZD6482 + AZD7762; first compound 0.8 µM)	relative viability (AZD6482 + AZD7762; first compound 2.53 µM)	relative viability (AZD6482 + AZD7762; first compound 8 µM)
LU99A	0.258	0.246	0.225	0.231	0.301	0.276	0.325	0.203	0.3	0.322	0.304	0.297	0.278	0.338	0.356	0.254	0.317	0.344
LXF-289	0.592	0.651	0.729	0.676	0.825	0.643	0.772	0.559	0.615	0.8	0.778	0.804	0.762	1.11	1.13	1.26	0.982	0.956
NCI-H23	0.223	0.209	0.206	0.187	0.592	0.512	0.592	0.364	0.302	0.438	0.491	0.574	0.362	0.317	0.223	0.236	0.201	0.219
NCI-H322M	0.766	0.943	0.799	0.832	0.523	0.497	0.531	0.317	0.414	0.489	0.604	0.486	0.548	0.647	0.623	0.587	0.421	0.405
NCI-H358	0.506	0.275	0.434	0.208	0.711	0.557	0.662	0.257	0.312	0.368	0.422	0.348	0.269	0.545	0.487	0.549	0.302	0.439
NCI-H441	0.318	0.368	0.334	0.584	0.669	0.4	0.627		0.508	0.407		0.48	0.38	1.02	1.18	1.36		1.19
NCI-H460	0.0382	0.0418	0.0348	0.0281	0.631	0.589	0.543	0.326	0.292	0.306	0.513	0.359	0.332	0.618	0.674	0.791	0.459	0.568
NCI-H596	0.87	0.871	0.927	1.02	0.676	0.596	0.809	0.732	0.559	0.396	0.432	0.392	0.359	0.874	1.05	1.07	0.925	0.966
NCI-H647	0.352	0.249	0.159	0.292	0.459	0.513	0.612	0.335	0.315		0.583	0.567	0.254	0.365	0.445	0.495	0.191	0.235
NCI-H650	0.746	0.628	0.783	0.661	0.588		0.457	0.305	0.356	0.959	0.707	1.03	0.562	1.06	0.918	1.12	0.77	0.619
NCI-H727	0.332	0.355	0.512	0.56	0.457	0.521	0.511	0.43	0.518	0.391	0.394	0.32	0.346	0.684	0.596	0.596		0.578
NCI-H838	0.378	0.324	0.296	0.294	0.334	0.378	0.355	0.199	0.27	0.477	0.598	0.479	0.424	0.936	0.902	0.934	0.78	0.759
NCI-H1355	0.715	0.693	0.734	0.773	0.287	0.323	0.384	0.256	0.298	0.434	0.442	0.472	0.476	0.642	0.755	0.745	0.681	0.65
NCI-H1395	0.7	0.695	0.7	0.71	0.519	0.433	0.553	0.393	0.44	0.596	0.589	0.647	0.486	0.393	0.393	0.44	0.405	0.411
NCI-H1437	1.12	1.06	1.21	0.965	0.983	0.855	1.07	0.471	0.567	0.436	0.496	0.49	0.323	1.16	1.07	1.16	1.03	0.836
NCI-H1651	0.905	0.846	1.14	0.804	0.601	0.59	0.655	0.567	0.539	0.638	0.591	0.73	0.462	0.457	0.379	0.456	0.391	0.379
NCI-H1666	0.973	0.997	1.11	0.947	0.684	0.765	0.918	0.66	0.8	0.547	0.424	0.579	0.275	0.79	0.776	0.958	0.835	0.767
